Test results: patent US10835540B2, “Pharmaceutical use” (Lucolas-M.D. Ltd., priority 2011, dated 2020)

Tested on: mastodynia
Assay: Previous prescriptions for pre-menstrual breast pain (anamnesis, Example 8)
Assay type: in vivo, human
Details: Example 8 patient; for effect of previous prescription on breast pain symptoms: 'The same applies' in b116 refers to 'basically without any effect'
Text: Pre-menstrual syndrome with symptoms of strong pain in both breasts since puberty. Dynamic increase of the symptoms with extremely strong tactile sensitivity, strong sensation of swelling and tension with pain symptoms diffusely radiating into the chest and the arms, which becomes virtually unbearable until the beginning of the menstruation. Unable to work because of these conditions for 2-4 days per month since 3 years. Intimate touching not possible for 14 days per month due to the pathologic tactile hyper-sensitivity. Fading-away of the symptoms only 7-10 days after the beginning of the menstruation.

Structure (SMILES) | effect of previous prescription on breast pain symptoms | effect on breast pain symptoms (20 mg) | side-effects (20 mg, mainly cardiovascular, led to quitting the therapy)
C#C[C@]1(O)CC[C@H]2[C@@H]3CCC4=Cc5oncc5C[C@]4(C)[C@H]3CC[C@@]21C [Danazol] | The same applies | – | –
CC(C)C[C@H]1C(=O)N2CCC[C@H]2[C@]2(O)O[C@](NC(=O)[C@@H]3C=C4c5cccc6[nH]c(Br)c(c56)C[C@H]4N(C)C3)(C(C)C)C(=O)N12 [Bromocriptin] | The same applies | – | –
CC/C(=C(\c1ccccc1)c1ccc(OCCN(C)C)cc1)c1ccccc1 [Tamoxifen] | – | considerable alleviation of the symptoms | uncontrolled increase of blood pressure
